The test system of test [1] is Male white CD 1 (Charles River) mice. Nature of the test: Antidepressant activity: antagonism to reserpine (hypothermia induced by reserpine). In kind it is in vivo. Particulars: 4 h after reserpine 2.5 mg/kg i.p. How it is done: Male white CD 1 (Charles River) mices weighing 23-35 g were used. Before every test, the basal rectal temperature of every mouse is registered. […] The rectal temperature is measured again at t=O and 30', 60', 90' and 120' after administration of the drug.

Test [2] has as its system White male CD 1 (Charles River) mice. Kind of test: Nootropic activity: "Passive avoidance" test (amnesia induced by scopolamine). The test is classed as in vivo. The following applies: scopolamine 2 mg/kg i.p.
Test [3] shares this test system. Nature of the test: Antidepressant activity: "Behavioral despair" test (Porsolt). The test is classed as in vivo. Particulars: relative to control group. How it is done:
The test described in R. D. Porsolt et al., Arch.Int.Pharmacodyn. 229, 327 (1977), which allows the antidepressant activity of a drug to be evaluated on an animal placed in an unusual, stress-causing environment, such as the water environment, was carried out. White male CD 1 (Charles River) mice weighing 24-35 g were used.
1 h before the immersion in water, the animal is administered the test compound by the intraperitoneal (i.p.) route. […] As the reference substances the xanthines theophylline and caffeine, the nootropically acting drug oxiracetam and the tricyclic antidepressant desipramine were included.

The next test deals with T1, adenosine A1 receptors (Rattus norvegicus, UniProt P25099).
T1 construct: preparations of sinaptosomial membranes from rat brain; from tissue; host or cells: rat brain synaptosomal membranes
T1 sequence (P25099 1-326): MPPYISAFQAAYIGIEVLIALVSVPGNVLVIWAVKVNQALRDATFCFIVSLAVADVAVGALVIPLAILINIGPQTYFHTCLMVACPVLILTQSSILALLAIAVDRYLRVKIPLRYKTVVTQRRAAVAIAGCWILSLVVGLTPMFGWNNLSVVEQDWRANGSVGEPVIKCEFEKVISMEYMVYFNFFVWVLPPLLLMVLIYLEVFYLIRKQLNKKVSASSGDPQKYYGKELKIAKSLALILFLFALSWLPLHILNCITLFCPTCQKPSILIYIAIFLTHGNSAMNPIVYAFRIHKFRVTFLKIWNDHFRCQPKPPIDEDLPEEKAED
Nature of the test: Binding to the adenosine A1 receptors, (3H)-DPCPX displacement, synaptosomal membranes from rat brain. Particulars: for Ki: rat brain synaptosomal membranes, 0.3 nM (3H)-DPCPX, 1 h at 25° C., pH 7.4, Ki from IC50 via Cheng-Prusoff. How it is done:
The receptor binding tests were carried out on preparations of sinaptosomial membranes from rat brain. Binding to the A1 receptors has been carried out as follows: 200 μg of membrane proteins were incubated for 1 h at 25° C. with the test substance and 0.3 nM (3H)-DPCPX in 400 μl of 50 mM tris-HCl pH=7.4. The non-specific binding was determined with 20 μM R-PIA. The binding to the A2 receptors was carried out by incubating 200 μg of membrane proteins for 1 h at 25° C. with the test substance, 4 nM (3H)-NECA and 50 nM CPA. The non-specific binding was determined with 200 μM CPA. The incubations were blocked by centrifugal methods and the separation of the bound from free material was carried out, followed by determination of the contained radioactivity by liquid scintillation. The dosis-inhibition curves were obtained by assaying the receptor displacement at 14 different concentrations of the test substance (all the tests are carried out in triplicate). The tested substances were dissolved into dimethylsulfoxide and diluted in 50 mM Tris-HCl, buffer pH=7.4. The IC50 values were determined by means of non-linear regression curves and transformed into Ki values according to the Cheng-Prusoff equation.

The test system of test [4] is Male Wistar (Charles River) rats. Nature of the test: Locomotor activity: "Activity cage" test. In kind it is in vivo. The following applies: Rattus norvegicus, ip, read-out: DE50 (ED50 for % increase of spontaneous motion activity). An excerpt: This test allows the spontaneous locomotor activity of the animal to be studied. Male Wistar (Charles River) rats weighing 150-250 g were used. […] The printer connected to the system records the number of movements performed by the rats within the first 5' from the moment they enter the cage.

The target in another test is T2, adenosine A2 receptors (Rattus norvegicus, UniProt P30543).
T2 construct: preparations of sinaptosomial membranes from rat brain; from tissue; host or cells: rat brain synaptosomal membranes
T2 sequence (P30543 whole entry): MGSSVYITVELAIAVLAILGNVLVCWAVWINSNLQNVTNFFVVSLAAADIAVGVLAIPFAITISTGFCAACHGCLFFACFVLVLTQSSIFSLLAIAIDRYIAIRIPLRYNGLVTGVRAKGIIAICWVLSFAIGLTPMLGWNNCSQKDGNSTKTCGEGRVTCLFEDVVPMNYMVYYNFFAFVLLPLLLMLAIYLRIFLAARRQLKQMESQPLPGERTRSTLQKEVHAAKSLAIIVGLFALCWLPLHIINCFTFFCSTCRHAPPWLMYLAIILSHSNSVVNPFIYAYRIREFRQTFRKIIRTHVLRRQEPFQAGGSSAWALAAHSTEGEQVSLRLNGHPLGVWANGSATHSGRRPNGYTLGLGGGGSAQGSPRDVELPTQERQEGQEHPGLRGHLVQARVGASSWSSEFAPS
Kind of test: Binding to the adenosine A2 receptors, (3H)-NECA + 50 nM CPA, synaptosomal membranes from rat brain. The following applies: 4 nM (3H)-NECA and 50 nM CPA, 1 h at 25° C., Ki from IC50 via Cheng-Prusoff. The method, then: The receptor binding tests were carried out on preparations of sinaptosomial membranes from rat brain.
200 μg of membrane proteins were incubated for 1 h at 25° C. with the test substance and 0.3 nM (3H)-DPCPX in 400 μl of 50 mM tris-HCl pH=7.4. The non-specific binding was determined with 20 μM R-PIA. The binding to the A2 receptors was carried out by incubating 200 μg of membrane proteins for 1 h at 25° C. with the test substance, 4 nM (3H)-NECA and 50 nM CPA. The non-specific binding was determined with 200 μM CPA.
The incubations were blocked by centrifugal methods and the separation of the bound from free material was carried out, followed by determination of the contained radioactivity by liquid scintillation. The dosis-inhibition curves were obtained by assaying the receptor displacement at 14 different concentrations of the test substance (all the tests are carried out in triplicate). The tested substances were dissolved into dimethylsulfoxide and diluted in 50 mM Tris-HCl, buffer pH=7.4. The IC50 values were determined by means of non-linear regression curves and transformed into Ki values according to the Cheng-Prusoff equation.

Setting [5] is: 10 mg/kg i.p., 1 h before immersion.
Setting [6] is: dose 10 (unit not given), i.p. 1 h before acquisition trial.
[7] abbreviates: 30' before activity cage, movements within first 5', relative to control group.

The text below walks through data of patent US5378844A, “8-(1-aminocycloalkyl)-1,3-dialkylxanthine derivatives, preparation process and antidepressant, nootropic and psychostimulant composition thereoff” (Biomedica Foscama Industria Chimico-Farmaceutica S.p.A., priority 1992, dated 1995).

The structures appear in SMILES notation. Read-outs that look alike come from different tables or passages of the source.

Consider `CNCCCN1c2ccccc2CCc2ccccc21` [DESIPRAMINE], for which the “Δ TEMPERATURE (maximum temperature variation relative to t=0)” value in test [1] (16 mg/kg i.p.) was “+1.39 °C”. Besides, in test [2] (dose 45 (unit not given), i.p. 1 h before acquisition trial), the “ANTIAMNESIC ACTIVITY (percentage of animals that do not trespass the door)” value is recorded as 30%. Moreover, the “% VARIATION OF MOTIONLESSNESS TIME LENGTH” value in test [3] (15 mg/kg i.p.) is on record as -24.50%.
Compound `CCCn1c(=O)c2[nH]c(C3(NC(=O)c4ccccc4)CCCC3)nc2n(CCC)c1=O` [COMPOUND EX. 6, 8-(1-benzoylaminocyclopentyl)-1,3-dipropylxanthine] registered a Ki at adenosine A1 receptors of 0.115 µM. Further, the “% VARIATION OF MOTIONLESSNESS TIME LENGTH” value in test [3] (setting [5]) is -24.22%.
Compound `CCCn1c(=O)c2[nH]c(C3(NS(C)(=O)=O)CCCC3)nc2n(CCC)c1=O` [COMPOUND EX. 8, 1,3-dipropyl-8-(1-methanesulfonylaminocyclopenthyl)xanthine] displayed a Ki at adenosine A1 receptors of 0.166 µM.
Take `Cn1c(=O)c2c(ncn2C)n(C)c1=O` [CAFFEINE]: the “Δ TEMPERATURE (maximum temperature variation relative to t=0)” value in test [1] (20 mg/kg i.p.) was “+1.63 °C”. For the same compound, in test [2] (setting [6]), the “ANTIAMNESIC ACTIVITY (percentage of animals that do not trespass the door)” value was 60%. Besides, in test [4], the ED50 was 4.33 mg/kg. Besides, the “% VARIATION OF MOTI[…] LENGTH” value in test [3] (25 mg/kg (os)) was -30.34%.
Turning to `Cn1c(=O)c2[nH]cnc2n(C)c1=O` [THEOPHYLLINE, 1,3-dimethylxanthine], the “Δ TEMPERATURE (maximum temperature variation relative to t=0)” value in test [1] (20 mg/kg i.p.) was “+0.81 °C”. Also, in test [2] (dose 20 (unit not given), i.p. 1 h before acquisition trial), the “ANTIAMNESIC ACTIVITY (percentage of animals that do not trespass the door)” value is on record as 30%. Also, the ED50 in test [4] is roughly 3.75 mg/kg. Moreover, the “% VARIATION OF MOTI[…] LENGTH” value in test [3] (18.7 mg/kg (os)) is listed as -48.88%.
In the case of `Cn1c(=O)c2[nH]c(-c3ccccc3)nc2n(C)c1=O` [8-PHENYLTHEOPHYLINE], the “ANTIAMNESIC ACTIVITY (percentage of animals that do not trespass the door)” value in test [2] (setting [6]) is on record as 40%. Further, the ED50 in test [4] (setting [7]) was found to be 6.01 mg/kg.
For `CCCn1c(=O)c2[nH]c(C3(NC(=O)OCC)CCCC3)nc2n(CCC)c1=O` [COMPOUND EX. 10, 1,3-dipropyl-8-(1(N-ethoxycarbonylamino)cyclopentyl)xanthine], the Ki on adenosine A1 receptors is 0.108 µM.
Take `CCCn1c(=O)c2[nH]c(C3(N)CCCC3)nc2n(CCC)c1=O` [COMPOUND EX. 1, 8-(1-aminocyclopentyl)-1,3-dipropylxanthine]: the Ki at adenosine A1 receptors turned out to be 0.026 µM; at adenosine A2 receptors it was 54.6 µM. For the same compound, at adenosine A1 receptors (ratio of Ki,A2 to Ki,A1), the “SELECTIVITY (A2/A1)” value is reported as 2100. For the same compound, the “Δ TEMPERATURE (maximum temperature variation relative to t=0)” value is “+0.26 °C” in test [1] (10 mg/kg i.p.) and “+0.71 °C” in test [1] (20 mg/kg i.p.). Also, the “ANTIAMNESIC ACTIVITY (percentage of animals that do not trespass the door)” value in test [2] (setting [6]) came to 80%. Besides, in test [4] (setting [7]), the ED50 worked out at 0.492 mg/kg. The “% VARIATION OF MOTIONLESSNESS TIME LENGTH” value is reported as -28.33% in test [3] (setting [5]) and -42.93% in test [3] (20 mg/kg i.p., 1 h before immersion).
As to `CNCCC=C1c2ccccc2CCc2ccccc21` [NORTRIPTYLINE], the “Δ TEMPERATURE (maximum temperature variation relative to t=0)” value in test [1] (10 mg/kg i.p.) was “+2.34 °C”.
The compound `CCCn1c(=O)c2[nH]c(C3(NC(=O)CC(=O)O)CCCC3)nc2n(CCC)c1=O` [COMPOUND EX. 12, 1,3-dipropyl-8-(1-emimalonamidocyclopentyl)xanthine] displayed a Ki on adenosine A1 receptors of 6.99 µM.
As for `NC(=O)CN1CC(O)CC1=O` (stereo not drawn) [OXIRACETAM], the “ANTIAMNESIC ACTIVITY (percentage of animals that do not trespass the door)” value in test [2] (dose 1000 (os) (unit not given)) is reported as 40%. In addition, the “% VARIATION OF MOTIONLESSNESS TIME LENGTH” value in test [3] (500 mg/kg i.p.) is reported as -29.07%.

The Ki is the dissociation constant of the complex between target and ligand, obtained from inhibition or displacement. The ED50 is the dose that gives a 50% effect, or the effect in half of the subjects.
